# Assay results: patent US11548899B2, “Fused 1,4-oxazepines and related analogs as BET bromodomain inhibitors” (THE REGENTS OF THE UNIVERSITY OF MICHIGAN, priority 2016, dated 2023)
# Where “and” joins values, the source holds several entries; their conditions need not be identical. Equal values may be shown once. Read-outs that look alike come from different tables or passages of the source.
# Key:
# MOLM-13 = assay: Cell growth inhibition, 4-day proliferation assay, MOLM-13; assay type: cell-based; conditions: read-out: Cell Viability (IC50, μM) MOLM-13
# Procedure: (§1) The effect of representative Compounds of the Disclosure on cell viability was determined in a 4-day proliferation assay. Cells were maintained in the appropriate culture medium with 10% FBS at 37° C. and an atmosphere of 5% CO2. All the cell lines were used within three months of thawing fresh vials.
# (§2) Cells were seeded in 96-well flat bottom (Corning COSTAR, Corning, N.Y., cat #3595) or white opaque cell culture plates (BD Falcon, cat #353296) at a density of 3,000-10,000 cells/well in 75 μl of culture medium. Compounds were serially diluted in the appropriate medium, and 75 μl of the diluted compounds were added to the appropriate wells of the cell plate. After the addition of compounds, the cells were incubated at 37° C. in an atmosphere of 5% CO2 for 4 days. Cell viability was determined using the CellTiter-Glo® Luminescent Cell Viability Assay Kit (Promega, Madison, Wis.) for leukemia cells and WST (2-(2-methoxy-4-nitrophenyl)-3-(4-nitrophenyl)-5-(2,4-disulfophenyl)-2H-tetrazolium, monosodium salt) Cell Counting-8 Kit (Dojindo Molecular Technologies, Inc., Rockville, Md.) for adhenrent cells according to the manufacturers' instructions. […]
# (§3) For CellTiter-Glo assay (suspension cells), 100 μl of CellTiter-Glo® Reagent was added to each well, and then the plates were incubated at room temperature for 10-20 minutes. The luminescent signal was measured using a Tecan Infinite M1000 multimode microplate reader (Tecan, Morrisville, N.C.). The readings were normalized to the DMSO-treated cells and the IC50 was calculated by nonlinear regression (four parameters sigmoid fitted with variable slope, least squares fit, and no constraint) analysis using the GraphPad Prism 5 software. See US 2014/0256706.
# RS4-11 = assay: Cell growth inhibition, 4-day proliferation assay, RS4-11; assay type: cell-based; conditions: read-out: Cell Viability (IC50, μM) RS4-11
# Procedure: as §1, §2, §3
# recombinant BRD4 BD1 = molecular target: T1, recombinant BRD4 BD1 (Homo sapiens, UniProt O60885); assay: Competitive fluorescence-polarization (FP) binding assay, BRD4 BD1
# T1 construct: recombinant BRD4 BD1 and BRD4 BD2 proteins
# Procedure: Fluorescence Polarization (FP) competitive binding studies were carried out using a FAM labeled fluorescent probe, see Cpd. […] Equilibrium dissociation constants (Kd) values of the fluorescent probe to BRD4 BD1 and BD2 proteins were determined from protein saturation experiments by monitoring the total fluorescence polarization of mixtures composed with the fluorescent probe at a fixed concentration and proteins with increasing concentrations up to full saturation. […] Plates were incubated at room temperature for 30 minutes with gentle shaking to assure equilibrium.
# The IC50 and Ki values of compounds were determined in a competitive binding experiment. […] Mixtures of 10 μl of the tested compounds in assay buffer with 40% Ethylene Glycol and 190 μl of preincubated protein/probe complex solution in the assay buffer (100 mM potassium phosphate, pH 6.5, 0.01% Triton X-100) were added into assay plates which were incubated at room temperature for 30 minutes with gentle shaking. Final concentrations of proteins were 10 and 6 nM in assays for BRD4 BD1 and BD2, respectively. […] FP values were measured as described above. IC50 values were determined by nonlinear regression fitting of the competition curves.
# recombinant BRD4 BD2 = molecular target: T2, recombinant BRD4 BD2 (Homo sapiens, UniProt O60885); assay: Competitive fluorescence-polarization (FP) binding assay, BRD4 BD2; conditions: protein 6 nM, probe 1.5 nM
# T2 construct: recombinant BRD4 BD1 and BRD4 BD2 proteins
# [1] = 4 days incubation, MOLM-13 cells
# [2] = Homo sapiens, MOLM-13, 96 h, 4 days incubation, MOLM-13 cells
# [3] = Homo sapiens, RS4-11, 96 h, 4 days incubation, RS4-11 cells
# [4] = FP competitive binding, protein 10 nM, probe 1.5 nM, read-out: IC50 (nM) BRD4 BD1
# [5] = 4 days incubation, RS4-11 cells
SMILES,IC50 (MOLM-13; [2]),IC50 (RS4-11; [3]),IC50 (recombinant BRD4 BD1; [4]),IC50 (recombinant BRD4 BD2),other results
"Cc1sc2c(c1Cc1ccccc1)COCc1nnc(C)n1-2 [Cpd. No. 4, 3-benzyl-2,9-dimethyl-4H,6H-thieno[2,3-e][1,2,4]triazolo[3,4-c][1,4]oxazepine]",0.8 µM,1.7 µM,–,–,IC50 (MOLM-13; [1]): 0.9 µM
"Cc1sc2c(c1-c1ccnc3ccccc13)COCc1nnc(C)n1-2 [Cpd. No. 5, 2,9-dimethyl-3-(quinolin-4-yl)-4H,6H-thieno[2,3-e][1,2,4]triazolo[3,4-c][1,4]oxazepine]",–,> 5 µM,1370 nM,1070 nM,–
"Cc1sc2c(c1Nc1ccccc1)COCc1nnc(C)n1-2 [Cpd. No. 6, 2,9-dimethyl-N-phenyl-4H,6H-thieno[2,3-e][1,2,4]triazolo[3,4-c][1,4]oxazepin-3-amine]",–,–,317 nM and 629 nM,346 nM and 457 nM,"IC50 (MOLM-13; Homo sapiens, MOLM-13, 96 h): > 5 µM; IC50 (RS4-11; Homo sapiens, RS4-11, 96 h): 4.5 µM"
"CCOC(=O)N1Cc2c(sc(C)c2Cc2ccccc2)-n2c(C)nnc2[C@@H]1C [Cpd. No. 18, ethyl (S)-3-benzyl-2,6,9-trimethyl-4H-thieno[3,2-f][1,2,4]triazolo[4,3-a][1,4]diazepine-5(6H)-carboxylate]",–,–,532 nM,601 nM,"IC50 (MOLM-13; Homo sapiens, MOLM-13, 96 h): 4.3 µM"
"Cc1sc2c(c1Cc1ccccc1)CN(C)[C@@H](C)c1nnc(C)n1-2 [Cpd. No. 20, (S)-3-benzyl-2,5,6,9-tetramethyl-5,6-dihydro-4H-thieno[3,2-f][1,2,4]triazolo[4,3-a][1,4]diazepine]",1.3 µM,–,235 nM and 340 nM,636 nM and 1210 nM,–
"C=C(c1ccccc1)c1c(C)sc2c1COCc1nnc(C)n1-2 [Cpd. No. 24, 2,9-dimethyl-3-(1-phenylvinyl)-4H,6H-thieno[2,3-e][1,2,4]triazolo[3,4-c][1,4]oxazepine]",3.4 µM,–,491 nM,492 nM,–
"Cc1sc2c(c1Cc1ccccc1)CN(CC1CC1)[C@@H](C)c1nnc(C)n1-2 [Cpd. No. 27, (S)-3-benzyl-5-(cyclopropylmethyl)-2,6,9-trimethyl-5,6-dihydro-4H-thieno[3,2-f][1,2,4]triazolo[4,3-a][1,4]diazepine]",> 5 µM,–,611 nM,2610 nM,–
"Cc1sc2c(c1C(C)c1ccccc1)COCc1nnc(C)n1-2 (centres unmarked) [Cpd. No. 28, 2,9-dimethyl-3-(1-phenylethyl)-4H,6H-thieno[2,3-e][1,2,4]triazolo[3,4-c][1,4]oxazepine]",4.7 µM,–,772 nM,749 nM,–
"Cc1nnc2n1-c1cccc(C(C)c3ccccc3)c1COC2 (centres unmarked) [Cpd. No. 46, 1-methyl-7-(1-phenylethyl)-4,6-dihydrobenzo[e][1,2,4]triazolo[3,4-c][1,4]oxazepine]",2.9 µM,–,807 nM,268 nM,–
"Cc1nnc2n1-c1cccc(C3(c4ccccc4)CC3)c1COC2 [Cpd. No. 48, 1-methyl-7-(1-phenylcyclopropyl)-4,6-dihydrobenzo[e][1,2,4]triazolo[3,4-c][1,4]oxazepine]",1.4 µM,–,454 nM and 696 nM,71.6 nM and 137 nM,–
"Cc1nnc2n1-c1cccc(C3=CCCc4ccccc43)c1COC2 [Cpd. No. 49, 7-(3,4-dihydronaphthalen-1-yl)-1-methyl-4,6-dihydrobenzo[e][1,2,4]triazolo[3,4-c][1,4]oxazepine]",> 5 µM,–,2350 nM and 1820 nM,271 nM and 175 nM,–
"Cc1nnc2n1-c1cccc(C3CCCc4ccccc43)c1COC2 (centres unmarked) [Cpd. No. 50, 1-methyl-7-(1,2,3,4-tetrahydronaphthalen-1-yl)-4,6-dihydrobenzo[e][1,2,4]triazolo[3,4-c][1,4]oxazepine]",2.7 µM,–,425 nM and 585 nM,146 nM and 247 nM,–
"Cc1nnc2n1-c1ccc(C#CCCO)c(Cc3ccccc3)c1COC2 [Cpd. No. 84, 4-(7-benzyl-1-methyl-4,6-dihydrobenzo[e][1,2,4]triazolo[3,4-c][1,4]oxazepin-8-yl)but-3-yn-1-ol]",0.7 µM,1 µM,–,–,–
"Cc1nnc2n1-c1sc(C#Cc3cncn3C)c(Cc3ccccc3)c1COC2 [Cpd. No. 86, 3-benzyl-9-methyl-2-((1-methyl-H-imidazol-5-yl)ethynyl)-4,6-dihydrothieno[2,3-e][1,2,4]triazolo[3,4-c][1,4]oxazepine]",0.14 µM,0.2 µM,–,–,–
"Cc1nnc2n1-c1sc(C#Cc3ccncc3)c(Cc3ccccc3)c1COC2 [Cpd. No. 87, 3-benzyl-9-methyl-2-(pyridin-4-ylethynyl)-4,6-dihydrothieno[2,3-e][1,2,4]triazolo[3,4-c][1,4]oxazepine]",0.14 µM,0.21 µM,–,–,–
"Cc1nnc2n1-c1sc(C#Cc3cccnc3)c(Cc3ccccc3)c1COC2 [Cpd. No. 88, 3-benzyl-9-methyl-2-(pyridin-3-ylethynyl)-4,6-dihydrothieno[2,3-e][1,2,4]triazolo[3,4-c][1,4]oxazepine]",–,–,–,–,"IC50 (MOLM-13; Homo sapiens, MOLM-13, 96 h): 0.12 µM; IC50 (RS4-11; Homo sapiens, RS4-11, 96 h): 0.25 µM"
"Cc1nnc2n1-c1sc(-c3cn[nH]c3)c(Cc3ccccc3)c1COC2 [Cpd. No. 91, 3-benzyl-9-methyl-2-(1H-pyrazol-4-yl)-4H,6H-thieno[2,3-e][1,2,4]triazolo[3,4-c][1,4]oxazepine]",1.2 µM,1.2 µM,153 nM,–,–
"Cc1nnc2n1-c1sc(-c3cnn(C)c3)c(Cc3ccccc3)c1COC2 [Cpd. No. 92, 3-benzyl-9-methyl-2-(1-methyl-H-pyrazol-4-yl)-4H,6H-thieno[2,3-e][1,2,4]triazolo[3,4-c][1,4]oxazepine]",1.6 µM,1.6 µM,211 nM,–,–
"Cc1nnc2n1-c1sc(C3CC3)c(Cc3ccccc3)c1COC2 [Cpd. No. 93, 3-benzyl-2-cyclopropyl-9-methyl-4H,6H-thieno[2,3-e][1,2,4]triazolo[3,4-c][1,4]oxazepine]",> 5 µM,> 5 µM,–,–,–
"Cc1nnc2n1-c1sc(C#CCCO)c(Cc3ccccc3)c1COC2 [Cpd. No. 96, 4-(3-benzyl-9-methyl-4H,6H-thieno[2,3-e][1,2,4]triazolo[3,4-c][1,4]oxazepin-2-yl)but-3-yn-1-ol]",0.3 µM,0.4 µM,–,–,IC50 (MOLM-13; [1]): 0.25 µM; IC50 (RS4-11; [5]): 0.34 µM
"Cc1nnc2n1-c1sc(CCCCO)c(Cc3ccccc3)c1COC2 [Cpd. No. 99, 4-(3-benzyl-9-methyl-4H,6H-thieno[2,3-e][1,2,4]triazolo[3,4-c][1,4]oxazepin-2-yl)butan-1-ol]",2.9 µM,2.2 µM,–,–,IC50 (recombinant BRD4 BD1; IC50 (nM) BRD4 BD1): 367 nM
"Cc1sc2c(c1Cc1cccc(F)c1)COCc1nnc(C)n1-2 [Cpd. No. 100, 3-(3-fluorobenzyl)-2,9-dimethyl-4H,6H-thieno[2,3-e][1,2,4]triazolo[3,4-c][1,4]oxazepine]",2.4 µM,2.3 µM,208 nM,–,–
"Cc1sc2c(c1Cc1cccc(C#N)c1)COCc1nnc(C)n1-2 [Cpd. No. 101, 3-(3-cyanobenzyl)-2,9-dimethyl-4H,6H-thieno[2,3-e][1,2,4]triazolo[3,4-c][1,4]oxazepine]",> 5 µM,3.6 µM,832 nM,–,–
"Cc1sc2c(c1Cc1ccccc1F)COCc1nnc(C)n1-2 [Cpd. No. 102, 3-(2-fluorobenzyl)-2,9-dimethyl-4H,6H-thieno[2,3-e][1,2,4]triazolo[3,4-c][1,4]oxazepine]",3.9 µM,2.6 µM,222 nM,–,–
"Cc1sc2c(c1Cn1ccc3ccccc31)COCc1nnc(C)n1-2 [Cpd. No. 106, 3-((1H-indol-1-yl)methyl)-2,9-dimethyl-4H,6H-thieno[2,3-e][1,2,4]triazolo[3,4-c][1,4]oxazepine]",2.6 µM,1.5 µM,283 nM,–,–
"Cc1nnc2n1-c1sc(C#Cc3cnn(C)c3)c(Cc3ccc(F)cc3)c1COC2 [Cpd. No. 111, 3-(4-fluorobenzyl)-9-methyl-2-((1-methyl-H-pyrazol-4-yl)ethynyl)-4H,6H-thieno[2,3-e][1,2,4]triazolo[3,4-c][1,4]oxazepine]",–,0.18 µM,5.4 nM and 10.5 nM and 12.9 nM,112 nM and 142 nM and 127 nM,IC50 (RS4-11; [5]): 0.25 µM
"Cc1nnc2n1-c1sc(C#CCCO)c(Cc3ccccc3)c1CO[C@H]2C [Cpd. No. 113, (S)-4-(3-benzyl-6,9-dimethyl-4H,6H-thieno[2,3-e][1,2,4]triazolo[3,4-c][1,4]oxazepin-2-yl)but-3-yn-1-ol]",–,0.24 µM,26.9 nM and 40 nM,146 nM and 149 nM,IC50 (RS4-11; [5]): 0.45 µM
